In ChEMBL document CHEMBL5236600, “Identification of a Novel Potent CYP4Z1 Inhibitor Attenuating the Stemness of Breast Cancer Cells through Lead Optimization” (J Med Chem, 2022):
Active and inactive are the calls of the source. The rule behind the calls is not given here.

How the values were obtained:
MCF7 [1] = assay: Antiproliferative activity against human MCF7 cells assessed as decrease in spheroid number at 3.2 to 51.2 uM incubated for 10 days; type: functional, cell-based; conditions: dose 3.2-51.2 µM, time 10.0 day
MCF7 [2] = assay: Antitumor activity against human MCF7 cells implanted in BALB/c mouse assessed as reduction in stem cell frequency administered drug pretreated cells subcutaneously and observed after 2 weeks; type: functional, cell-based; conditions: route sc
MDA-MB-231 [3] = assay: Inhibition of cell invasion of human MDA-MB-231 cells at 0.8 to 51.2 uM incubated for 24 hrs by transwell invasion assay; type: functional, cell-based; conditions: dose 0.8-51.2 µM
MDA-MB-231 [4] = assay: Antiproliferative activity against human MDA-MB-231 cells assessed as decrease in spheroid number at 3.2 to 51.2 uM incubated for 10 days; type: functional, cell-based; conditions: dose 3.2-51.2 µM, time 10.0 day
MCF7 [5] = assay: Inhibition of cell stemness in human MCF7 cells assessed as reduction in OCT4 expression at 0.8 to 51.2 uM by western blot analysis; type: functional, cell-based; conditions: dose 0.8-51.2 µM
Cytochrome P450 2D6 = Cytochrome P450 2D6 (Homo sapiens, UniProt P10635); assay: Inhibition of human recombinant CYP2D6 using Luciferin-ME EGE as substrate incubated for 30 mins in presence of NADPH by luminescence based assay; type: ADME
MDA-MB-231 [6] = assay: Antitumor activity against human MDA-MB-231 cells implanted in BALB/c mouse assessed as change in tumor weight administered drug pretreated cells subcutaneously and observed after 2 weeks; type: functional, cell-based; conditions: route sc
MCF7 [7] = assay: Inhibition of cell stemness in human MCF7 cells assessed as reduction in Nanog expression at 0.8 to 51.2 uM by western blot analysis; type: functional, cell-based; conditions: dose 0.8-51.2 µM
Cytochrome P450 3A4 = Cytochrome P450 3A4 (Homo sapiens, UniProt P08684); assay: Inhibition of human recombinant CYP3A4 using Luciferin-IPA as substrate incubated for 30 mins in presence of NADPH by luminescence based assay; type: ADME
[8] = Stability in mouse plasma assessed as half life at 40 uM incubated upto 5 hrs by LC-MS/MS analysis; type: ADME, cell-free
[9] = Toxicity in mouse assessed as body weight loss at 2000 mg/kg,po administered for 7 days; type: organism-based; conditions: in vivo, 168 h, time 7 day
MCF7 [10] = assay: Antitumor activity against human MCF7 cells implanted in BALB/c mouse assessed as decrease in OCT4 expression administered drug pretreated cells subcutaneously and observed after 2 weeks by immunohistochemistry; type: functional, cell-based; conditions: route sc
MDA-MB-231 [11] = assay: Antitumor activity against human MDA-MB-231 cells implanted in BALB/c mouse assessed as decrease in ALDH1A1 expression administered drug pretreated cells subcutaneously and observed after 2 weeks by immunohistochemistry; type: functional, cell-based; conditions: route sc
MCF7 [12] = assay: Antitumor activity against human MCF7 cells implanted in BALB/c mouse assessed as decrease in Ki67 expression administered drug pretreated cells subcutaneously and observed after 2 weeks by immunohistochemistry; type: functional, cell-based; conditions: route sc
MDA-MB-231 [13] = assay: Inhibition of cell stemness in human MDA-MB-231 cells assessed as reduction in Nanog expression at 0.8 to 51.2 uM by western blot analysis; type: functional, cell-based; conditions: dose 0.8-51.2 µM
MDA-MB-231 [14] = assay: Inhibition of cell migration of human MDA-MB-231 cells at 0.8 to 51.2 uM incubated for 24 hrs by wound healing assay; type: functional, cell-based; conditions: dose 0.8-51.2 µM
MCF7 [15] = assay: Inhibition of cell stemness in human MCF7 cells assessed as reduction in SOX2 expression at 0.8 to 51.2 uM by western blot analysis; type: functional, cell-based; conditions: dose 0.8-51.2 µM
MDA-MB-231 [16] = assay: Antitumor activity against human MDA-MB-231 cells implanted in BALB/c mouse assessed as change in stem cell frequency administered drug pretreated cells subcutaneously and observed after 2 weeks by colligation test; type: functional, cell-based; conditions: route sc
MCF7 [17] = assay: Antitumor activity against human MCF7 cells implanted in BALB/c mouse assessed as decrease in ALDH1A1 expression administered drug pretreated cells subcutaneously and observed after 2 weeks by immunohistochemistry; type: functional, cell-based; conditions: route sc
MDA-MB-231 [18] = assay: Inhibition of cell stemness in human MDA-MB-231 cells assessed as reduction in OCT3 expression at 0.8 to 51.2 uM by western blot analysis; type: functional, cell-based; conditions: dose 0.8-51.2 µM
MCF7 [19] = assay: Antitumor activity against human MCF7 cells implanted in BALB/c mouse assessed as change in tumor weight administered drug pretreated cells subcutaneously and observed after 2 weeks; type: functional, cell-based; conditions: route sc
MDA-MB-231 [20] = assay: Antiproliferative activity against human MDA-MB-231 cells assessed as cell growth inhibition incubated for 72 hrs by MTT assay; type: functional, cell-based; conditions: MDA-MB-231, 72 h
MCF7 [21] = assay: Inhibition of cell invasion of human MCF7 cells at 0.8 to 51.2 uM incubated for 48 hrs by transwell invasion assay; type: functional, cell-based; conditions: dose 0.8-51.2 µM
MDA-MB-231 [22] = assay: Antitumor activity against human MDA-MB-231 cells implanted in BALB/c mouse assessed as reduction in stem cell frequency administered drug pretreated cells subcutaneously and observed after 2 weeks; type: functional, cell-based; conditions: route sc
MDA-MB-231 [23] = assay: Inhibition of cell stemness in human MDA-MB-231 cells assessed as reduction in ALDH1A1 expression at 0.8 to 51.2 uM by western blot analysis; type: functional, cell-based; conditions: dose 0.8-51.2 µM
MDA-MB-231 [24] = assay: Inhibition of cell stemness in human MDA-MB-231 cells assessed as reduction in P-gP expression at 0.8 to 51.2 uM by western blot analysis; type: functional, cell-based; conditions: dose 0.8-51.2 µM
MDA-MB-231 [25] = assay: Inhibition of cell stemness in human MDA-MB-231 cells assessed as reduction in OCT4 expression at 0.8 to 51.2 uM by western blot analysis; type: functional, cell-based; conditions: dose 0.8-51.2 µM
MCF7 [26] = assay: Antiproliferative activity against human MCF7 cells assessed as decrease in spheroid size at 3.2 to 51.2 uM incubated for 10 days; type: functional, cell-based; conditions: dose 3.2-51.2 µM, time 10.0 day
MCF7 [27] = assay: Antiproliferative activity against human MCF7 cells assessed as cell growth inhibition incubated for 72 hrs by MTT assay; type: functional, cell-based; conditions: MCF7, 72 h
MDA-MB-231 [28] = assay: Inhibition of cell stemness in human MDA-MB-231 cells assessed as reduction in SOX2 expression at 0.8 to 51.2 uM by western blot analysis; type: functional, cell-based; conditions: dose 0.8-51.2 µM
MCF7 [29] = assay: Inhibition of cell stemness in human MCF7 cells assessed as reduction in OCT3 expression at 0.8 to 51.2 uM by western blot analysis; type: functional, cell-based; conditions: dose 0.8-51.2 µM
MCF7 [30] = assay: Antitumor activity against human MCF7 cells implanted in BALB/c mouse assessed as change in stem cell frequency administered drug pretreated cells subcutaneously and observed after 2 weeks by colligation test; type: functional, cell-based; conditions: route sc
MDA-MB-231 [31] = assay: Antiproliferative activity against human MDA-MB-231 cells assessed as decrease in spheroid size at 3.2 to 51.2 uM incubated for 10 days; type: functional, cell-based; conditions: dose 3.2-51.2 µM, time 10.0 day
MDA-MB-231 [32] = assay: Antitumor activity against human MDA-MB-231 cells implanted in BALB/c mouse assessed as reduction in tumor formation ratio administered drug pretreated cells subcutaneously and observed after 2 weeks; type: functional, cell-based; conditions: route sc
MCF7 [33] = assay: Antitumor activity against human MCF7 cells implanted in BALB/c mouse assessed as reduction in tumor formation ratio administered drug pretreated cells subcutaneously and observed after 2 weeks; type: functional, cell-based; conditions: route sc
MDA-MB-231 [34] = assay: Antitumor activity against human MDA-MB-231 cells implanted in BALB/c mouse assessed as decrease in Ki67 expression administered drug pretreated cells subcutaneously and observed after 2 weeks by immunohistochemistry; type: functional, cell-based; conditions: route sc
Cytochrome P450 2C9 = Cytochrome P450 2C9 (Homo sapiens, UniProt P11712); assay: Inhibition of human recombinant CYP2C9 using Luciferin CEE as substrate incubated for 30 mins in presence of NADPH by luminescence based assay; type: ADME
MCF7 [35] = assay: Inhibition of cell stemness in human MCF7 cells assessed as reduction in P-gP expression at 0.8 to 51.2 uM by western blot analysis; type: functional, cell-based; conditions: dose 0.8-51.2 µM
MCF7 [36] = assay: Inhibition of cell migration of human MCF7 cells at 0.8 to 51.2 uM incubated for 48 hrs by wound healing assay; type: functional, cell-based; conditions: dose 0.8-51.2 µM
MDA-MB-231 [37] = assay: Antitumor activity against human MDA-MB-231 cells implanted in BALB/c mouse assessed as decrease in OCT4 expression administered drug pretreated cells subcutaneously and observed after 2 weeks by immunohistochemistry; type: functional, cell-based; conditions: route sc
[38] = Stability in mouse liver microsomes assessed as half life at 1 uM incubated upto 60 mins in presence of NADPH by LC-MS/MS analysis; type: ADME, Microsome
MCF7 [39] = assay: Antiproliferative activity against human MCF7 cells assessed as decrease in CD44+/CD24- cell population at 0.8 to 51.2 uM incubated for 30 mins by flow cytometry analysis; type: functional, cell-based; conditions: dose 0.8-51.2 µM
MCF7 [40] = assay: Inhibition of cell stemness in human MCF7 cells assessed as reduction in ALDH1A1 expression at 0.8 to 51.2 uM by western blot analysis; type: functional, cell-based; conditions: dose 0.8-51.2 µM
MDA-MB-231 [41] = assay: Antiproliferative activity against human MDA-MB-231 cells assessed as decrease in CD44+/CD24- cell population at 0.8 to 51.2 uM incubated for 30 mins by flow cytometry analysis; type: functional, cell-based; conditions: dose 0.8-51.2 µM

Chain of Cytochrome P450 2D6 (P10635 whole entry): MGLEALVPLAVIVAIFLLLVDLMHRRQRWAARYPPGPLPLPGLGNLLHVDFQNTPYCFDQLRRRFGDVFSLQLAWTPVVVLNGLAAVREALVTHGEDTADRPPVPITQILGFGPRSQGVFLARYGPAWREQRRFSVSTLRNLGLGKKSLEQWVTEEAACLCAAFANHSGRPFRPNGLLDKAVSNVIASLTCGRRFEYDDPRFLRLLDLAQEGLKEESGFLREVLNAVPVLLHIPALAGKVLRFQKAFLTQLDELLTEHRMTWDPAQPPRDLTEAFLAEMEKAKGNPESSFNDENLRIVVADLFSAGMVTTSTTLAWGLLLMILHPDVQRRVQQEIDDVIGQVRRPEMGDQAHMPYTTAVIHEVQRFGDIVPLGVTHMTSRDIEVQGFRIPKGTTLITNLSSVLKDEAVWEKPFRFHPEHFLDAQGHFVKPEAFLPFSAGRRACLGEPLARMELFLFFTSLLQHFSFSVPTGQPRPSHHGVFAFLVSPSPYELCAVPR
Chain of Cytochrome P450 3A4 (P08684 whole entry): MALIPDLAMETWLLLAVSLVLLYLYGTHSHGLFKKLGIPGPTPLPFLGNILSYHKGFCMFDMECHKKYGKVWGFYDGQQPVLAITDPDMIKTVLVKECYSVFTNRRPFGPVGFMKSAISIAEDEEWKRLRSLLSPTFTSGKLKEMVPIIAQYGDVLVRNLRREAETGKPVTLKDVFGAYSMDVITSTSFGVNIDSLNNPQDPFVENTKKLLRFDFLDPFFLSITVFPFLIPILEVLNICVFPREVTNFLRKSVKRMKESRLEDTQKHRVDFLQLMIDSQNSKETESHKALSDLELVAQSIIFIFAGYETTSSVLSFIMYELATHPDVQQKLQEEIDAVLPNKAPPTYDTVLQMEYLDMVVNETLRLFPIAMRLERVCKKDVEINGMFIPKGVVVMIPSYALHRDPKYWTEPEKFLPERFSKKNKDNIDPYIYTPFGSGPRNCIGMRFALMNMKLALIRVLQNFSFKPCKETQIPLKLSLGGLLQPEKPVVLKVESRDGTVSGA
Chain of Cytochrome P450 2C9 (P11712 whole entry): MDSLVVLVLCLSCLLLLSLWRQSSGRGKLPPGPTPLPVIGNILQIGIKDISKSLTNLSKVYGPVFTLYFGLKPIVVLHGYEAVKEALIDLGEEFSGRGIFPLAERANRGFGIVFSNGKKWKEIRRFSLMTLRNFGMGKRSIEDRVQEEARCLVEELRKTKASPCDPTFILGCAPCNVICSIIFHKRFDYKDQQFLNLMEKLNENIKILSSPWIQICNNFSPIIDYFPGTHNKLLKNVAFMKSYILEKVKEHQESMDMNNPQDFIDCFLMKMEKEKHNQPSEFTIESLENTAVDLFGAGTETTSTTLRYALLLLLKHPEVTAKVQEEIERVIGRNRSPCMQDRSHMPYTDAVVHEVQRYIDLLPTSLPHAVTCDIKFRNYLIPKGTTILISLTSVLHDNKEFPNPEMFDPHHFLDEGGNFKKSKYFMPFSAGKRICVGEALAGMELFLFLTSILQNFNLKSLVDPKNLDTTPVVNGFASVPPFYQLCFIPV

With `CCOC(=O)CCCc1ccc(N/C=N/O)cc1` the Activity (MCF7 [1]) was “Dose-Dependent Effect”, the Activity (MCF7 [2]) was “Active” and the inhibition (MDA-MB-231 [3]) was “Active”. The Activity (MDA-MB-231 [4]) was “Dose-Dependent Effect”, the inhibition (MCF7 [5]) was “Dose-Dependent Effect” and the IC50 (Cytochrome P450 2D6) was > 10000 nM. For the same molecule, the Activity (MDA-MB-231 [6]) was “inactive”, the inhibition (MCF7 [7]) was “Dose-Dependent Effect” and the IC50 (Cytochrome P450 3A4) was > 10000 nM. The half-life at 40 µM [8] was 24.6 min, the Activity [9] was “Non-Toxic” and the Activity (MCF7 [10]) was “Active”. The Activity (MDA-MB-231 [11]) was “Active”, the Activity (MCF7 [12]) was “Active” and the inhibition (MDA-MB-231 [13]) was “Dose-Dependent Effect”. For the same molecule, the inhibition (MDA-MB-231 [14]) was “Dose-Dependent Effect”, the inhibition (MCF7 [15]) was “Dose-Dependent Effect” and the Activity (MDA-MB-231 [16]) was “Active”. The Activity (MCF7 [17]) was “Active”, the inhibition (MDA-MB-231 [18]) was “Dose-Dependent Effect” and the Activity (MCF7 [19]) was “inactive”. The IC50 (MDA-MB-231 [20]) was 483 nM, the inhibition (MCF7 [21]) was “Active” and the Activity (MDA-MB-231 [22]) was “Active”. For the same molecule, the inhibition (MDA-MB-231 [23]) was “Dose-Dependent Effect”, the inhibition (MDA-MB-231 [24]) was “Dose-Dependent Effect” and the inhibition (MDA-MB-231 [25]) was “Dose-Dependent Effect”. For the same molecule, the Activity (MCF7 [26]) was “Dose-Dependent Effect”, the IC50 (MCF7 [27]) was 483 nM and the inhibition (MDA-MB-231 [28]) was “Dose-Dependent Effect”. For the same molecule, the inhibition (MCF7 [29]) was “Dose-Dependent Effect”, the Activity (MCF7 [30]) was “Active” and the Activity (MDA-MB-231 [31]) was “Dose-Dependent Effect”. For the same molecule, the Activity (MDA-MB-231 [32]) was “Active”, the Activity (MCF7 [33]) was “Active” and the Activity (MDA-MB-231 [34]) was “Active”. For the same molecule, the IC50 (Cytochrome P450 2C9) was > 10000 nM, the inhibition (MCF7 [35]) was “Dose-Dependent Effect” and the inhibition (MCF7 [36]) was “Dose-Dependent Effect”. The Activity (MDA-MB-231 [37]) was “Active”, the half-life at 1 µM [38] was 12.8 min and the Activity (MCF7 [39]) was “Dose-Dependent Effect”. The inhibition (MCF7 [40]) was “Dose-Dependent Effect” and the Activity (MDA-MB-231 [41]) was “Dose-Dependent Effect”.
